Values quoted from earlier work in article PMC11891579, “Fluorescent PyrAte-(S)-citalopram conjugates enable imaging of the serotonin transporter in living tissue” (Chemical Science, 2025).

Tested on: organic cation transporter 3 (OCT3)
Set-up: method as in PMID 34884800
Conditions: cited from earlier work

Compound: CN(C)CCC[C@@]1(c2ccc(F)cc2)OCc2cc(C#N)ccc21 [(S)-citalopram]
- affinity towards OCT3: does not display affinity towards OCT3
